From patent US10933051B2, “Carbapenem compounds and compositions for the treatment of bacterial infections” (FOB Synthesis, Inc., priority 2017, dated 2021)

Tests used:
Experiment in all cases: Antimicrobial Susceptibility Test (CLSI), Test Example 2
Type in all cases: cell-based
Set-up in all cases: unit not given here
[1] = system: A. baumannii FSAb-039; conditions: Table 4; strain produces OXA-51
Method: (§1) Antimicrobial Susceptibility Test was performed by the CLSI (Clinical and Laboratory Standards Institute) methods. The agar dilution method for determining antimicrobial susceptibility was carried out using Mueller Hinton-II agar and the amount of inoculation was 10^4CFU/spot. Broth dilution tests were performed using the Mueller Hinton-II broth. All assays were run with the indicated control strains, available from the ATCC (American Type Culture Collection, Rockville, Md.).

[2] = system: A. baumannii FSAb-065; conditions: Table 4; strain produces OXA-2, VIM-2
Method: as §1

[3] = system: A. baumannii FSAb-056; conditions: Table 4; strain produces OXA-23, OXA-51
Method: as §1

[4] = system: P. aeruginosa FSPa-121; conditions: Table 4; strain produces OXA-17
Method: as §1

[5] = system: A. baumannii FSAb-029; conditions: Table 4; strain produces OXA-2, IMP-1
Method: as §1

[6] = system: K. pneumoniae ATCC BAA-1904; conditions: Table 4; strain produces KPC-3
Method: as §1

[7] = system: E. coli FSEco-054; conditions: Table 4; strain produces ESBL
Method: as §1

| Structure (SMILES) | antimicrobial susceptibility, A. baumannii FSAb-039 [1] | antimicrobial susceptibility, A. baumannii FSAb-065 [2] | antimicrobial susceptibility, A. baumannii FSAb-056 [3] | antimicrobial susceptibility, P. aeruginosa FSPa-121 [4] | antimicrobial susceptibility, A. baumannii FSAb-029 [5] | antimicrobial susceptibility, K. pneumoniae BAA-1904 [6] | antimicrobial susceptibility, E. coil FSEco-054 [7] |
| --- | --- | --- | --- | --- | --- | --- | --- |
| C[C@@H](O)[C@H]1C(=O)N2C(C(=O)O)=C(CN(C)CCNC(=O)c3ccc(O)c(O)c3F)[C@H](C)[C@H]12 [Compound 2] | 4 | 2 | 2 | 2 | 2 | 16 | 2 |
| C[C@@H](O)[C@H]1C(=O)N2C(C(=O)O)=C(CN(C)CCNC(=O)c3ccc(O)c(O)c3C(F)(F)F)[C@H](C)[C@H]12 [Compound 3] | 4 | 2 | 4 | 4 | 4 | 32 | 4 |
| Cc1c(C(=O)NCCN(C)CC2=C(C(=O)O)N3C(=O)[C@H]([C@@H](C)O)[C@H]3[C@H]2C)ccc(O)c1O [Compound 4] | 8 | 4 | 8 | 8 | 8 | 16 | 8 |
| C[C@@H](O)[C@H]1C(=O)N2C(C(=O)O)=C(CN(C)CCNC(=O)c3cc(O)c(O)c(F)c3)[C@H](C)[C@H]12 [Compound 7] | 4 | 2 | 2 | 2 | 2 | 16 | 2 |
| C[C@@H](O)[C@H]1C(=O)N2C(C(=O)O)=C(CN(C)CCNC(=O)c3ccc(O)cc3)[C@H](C)[C@H]12 [Compound 10] | >32 | 16 | 16 | >32 | 16 | 8 | >32 |
| C[C@@H](O)[C@H]1C(=O)N2C(C(=O)O)=C(CN(C)CCNC(=O)c3cccc(O)c3Cl)[C@H](C)[C@H]12 [Compound 11] | >32 | 32 | 32 | >32 | 32 | 8 | >32 |
| C[C@@H](O)[C@H]1C(=O)N2C(C(=O)O)=C(CN(C)CCNC(=O)c3cccc(O)c3F)[C@H](C)[C@H]12 [Compound 12] | >32 | 32 | 32 | >32 | 32 | 4 | >32 |
| C[C@@H](O)[C@H]1C(=O)N2C(C(=O)O)=C(CN(C)CCNC(=O)c3ccccc3Cl)[C@H](C)[C@H]12 [Compound 13] | >32 | 16 | 32 | >32 | 32 | 8 | >32 |
| C[C@@H](O)[C@H]1C(=O)N2C(C(=O)O)=C(CN(C)CCNC(=O)c3ccc(Cl)cc3)[C@H](C)[C@H]12 [Compound 14] | >32 | >32 | >32 | >32 | >32 | 16 | >32 |
| C[C@@H](O)[C@H]1C(=O)N2C(C(=O)O)=C(CN(C)CCNC(=O)c3ccc(OC(=O)C(C)(C)C)c(OC(=O)C(C)(C)C)c3Cl)[C@H](C)[C@H]12 [Compound 16] | 8 | 8 | 8 | 8 | 4 | >32 | 8 |
| C[C@@H](O)[C@H]1C(=O)N2C(C(=O)O)=C(CN(C)CCCNC(=O)c3ccc(O)c(O)c3Cl)[C@H](C)[C@H]12 [Compound 17] | 8 | 2 | 4 | 4 | 2 | 32 | 2 |
| C[C@@H](O)[C@H]1C(=O)N2C(C(=O)O)=C(CN(C)CC(NC(=O)c3ccc(O)c(O)c3Cl)C(N)=O)[C@H](C)[C@H]12 (some centres unmarked) [Compound 18] | 4 | 1 | 4 | 2 | 8 | 16 | 2 |
| C[C@@H](O)[C@H]1C(=O)N2C(C(=O)O)=C(CN(C)CC(=O)NCc3ccc(O)c(O)c3Cl)[C@H](C)[C@H]12 [Compound 21] | 8 | 2 | 8 | 2 | 8 | 8 | 4 |
| C[C@@H](O)[C@H]1C(=O)N2C(C(=O)O)=C(CN3CC[C@H](NC(=O)c4ccc(OCc5ccccc5)c(OCc5ccccc5)c4Cl)C3)[C@H](C)[C@H]12 [Compound 28] | 8 | 0.5 | 4 | 2 | 0.5 | >32 | 2 |
| C[C@@H](O)[C@H]1C(=O)N2C(C(=O)O)=C(CN3CC(NC(=O)c4ccc(O)c(O)c4F)[C@@H](O)C3)[C@H](C)[C@H]12 (some centres unmarked) [Compound 36] | 4 |  | 8 |  | 4 | 32 | 4 |
| C[C@@H](O)[C@H]1C(=O)N2C(C(=O)[O-])=C(C[N+](C)(C)CCNC(=O)c3ccc(O)c(O)c3F)[C@H](C)[C@H]12 [Compound 41] | 16 |  | 32 |  | 8 | 8 | 4 |
| C[C@@H](O)[C@H]1C(=O)N2C(C(=O)[O-])=C(C[N+]3(CCNC(=O)c4ccc(O)c(O)c4F)CCCC3)[C@H](C)[C@H]12 [Compound 42] | 8 |  | 16 |  | 4 | 16 | 2 |
